According to US20230000945A1, “TOPICAL PHARMACEUTICAL FORMULATIONS OF A CYCLIC DEPSIPEPTIDE” (Lifemax Laboratories, Inc., priority 2020, published 2023):

Assays:
[1] = Stability of LM030 formulations stored at 50° C. for 7 days; format: physicochemical; conditions: summary of Table 7
[2] = General solubility and stability properties of LM030; format: physicochemical
Text: Difficulties in formulating LM030 for topical administration are described in U.S. Pat. No. 8,680,054. In particular, the solubility and stability properties of LM030 create challenges in developing a topical formulation with adequate storage stability that is also able to provide an effective amount of active agent available for skin penetration [See col 4, lines 16-23].

In the case of `CC[C@H](C)[C@@H]1NC(=O)[C@H](Cc2ccc(O)cc2)N(C)C(=O)[C@H]([C@@H](C)CC)N2C(=O)[C@H](CC[C@H]2O)NC(=O)[C@H](CC(C)C)NC(=O)[C@@H](NC(=O)[C@H](CCC(N)=O)NC(=O)C(C)C)[C@@H](C)OC1=O` [LM030], the “stability in the presence of aqueous solutions” value [1] is reported as “poor stability”, the “solubility in lipophilic excipients” value [2] is reported as “low” and the “solubility in polar organic solvents” value [2] is reported as “good”. For the same compound, the “solubility in water and aqueous buffers” value [2] was “moderate” and the “stability in polar organic solvents” value [2] was “poor”.
